Source: US20180078602A1, “METHODS AND COMPOSITIONS FOR EXTENDING THE EFFICACY OF PHOSPHODIESTERASE INHIBITORS FOR TREATING ERECTILE DYSFUNCTION, AND COMPOSITIONS FOR INHIBITING THE ONSET AND SLOWING THE PROGRESSION OF ERECTILE DYSFUNCTION” (K.L.R.M., LLC, priority 2015, published 2018)

What was measured:
desmin = experiment: Desmin immunohistochemistry (smooth muscle cell content); format: in vivo, rat; settings: treatment 2 months; with respect to 12 month-old non-treated controls
Procedure: (§1) Middle aged 10 month-old Fisher 344 rats (Harlan Sprague-Dawley, San Diego, Calif.) were divided in 4 groups and treated daily for two months as follows: • a) Control: 12 month-old at the time of death receiving by retrolingual administration vehicle only composed of 10% dimethyl sulfoxide, peanut butter and water (12 month); • b) Composition 4 (COMP 4): a combination of Muira Puama (45 mg/Kg B.W), Paullinia cupana (45 mg/Kg B.W), ginger (45 mg/Kg B.W) and […]) dissolved in vehicle; • c) Tadalafil (TAD): 2.5 mg/Kg B.W tadalafil dissolved in vehicle; • d) Composition 4+Tadalafil (COMP4+TAD): A combination of b and c at the same doses. Histochemistry and Immunohistochemistry. […] Quantitative Image Analysis was performed by computerized densitometry using ImagePro 7.1 software (Media Cybernetics, Silver Spring, Md.), coupled to an Olympus BHS microscope equipped with a Retiga digital camera. For Masson staining, 40× magnification pictures of the penis comprising half of the corpora cavernosa were analyzed for smooth muscle (stained in red) and collagen areas (stained in blue) excluding the sinusoidal spaces, and expressed as the smooth muscle/collagen ratio. For desmin and iNOS staining, 200× magnification pictures of the corpora cavernosa were analyzed in a computerized grid and expressed as a percentage of positive area versus total area of the corpora cavernosa. […]

[1] = tested on: rat corpora cavernosa smooth muscle/collagen; experiment: Masson trichrome staining, smooth muscle/collagen ratio by quantitative image analysis; format: in vivo; settings: daily oral treatment 2 months; compared to 12 month-old control animals
Procedure: as §1

CN1CC(=O)N2[C@H](c3ccc4c(c3)OCO4)c3[nH]c4ccccc4c3C[C@@H]2C1=O [tadalafil]
increase in desmin expression (desmin): 38% | improvement of SMC/collagen ratio [1]: 60%
